This note sets out measurements from ChEMBL document CHEMBL1201862, “PubChem BioAssay data set” (2004).

The source made the active and inactive calls. The rule behind the calls is not given here.

The experiment deals with T1, Oxysterols receptor LXR-beta (Homo sapiens, UniProt P55055).
T1 sequence (P55055 whole entry): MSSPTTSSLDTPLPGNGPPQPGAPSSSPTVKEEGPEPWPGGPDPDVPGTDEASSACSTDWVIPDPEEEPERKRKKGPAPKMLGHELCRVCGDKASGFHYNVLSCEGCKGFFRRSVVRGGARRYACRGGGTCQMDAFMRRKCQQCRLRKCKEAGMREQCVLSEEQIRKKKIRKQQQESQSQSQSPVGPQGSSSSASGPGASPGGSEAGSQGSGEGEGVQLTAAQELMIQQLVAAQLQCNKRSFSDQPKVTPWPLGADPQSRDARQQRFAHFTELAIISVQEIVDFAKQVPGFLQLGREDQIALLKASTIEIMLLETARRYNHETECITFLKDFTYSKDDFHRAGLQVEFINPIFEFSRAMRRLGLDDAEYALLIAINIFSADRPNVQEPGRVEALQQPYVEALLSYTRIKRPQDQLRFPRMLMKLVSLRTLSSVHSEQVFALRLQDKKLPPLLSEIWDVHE
The class given is functional, cell-based.
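Note: agonist activity at LXR measured by a cell-based luminescence readout across a dose range, run as a counterscreen for daf-12 agonists; HEK293 cells with Gal4-LXR fusion and GAL4-driven luciferase reporter; potency for activation of Gal4-LXR reporter so compounds are agonists.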

For the compound `Cc1ccc(SCCSc2ncccn2)cc1`, the EC50 is > 67.5 µM (inactive).

For orientation: EC50 means the concentration at which the effect is half-maximal.
